Data reported in ChEMBL document CHEMBL2062432, “Design and synthesis of novel DFG-out RAF/vascular endothelial growth factor receptor 2 (VEGFR2) inhibitors: 2. Synthesis and characterization of a novel imide-type prodrug for improving oral absorption” (Bioorg Med Chem, 2012).
Each block holds one molecule with its values, some of them ahead of it.

How the values were obtained:
[1] = tested on: Mus musculus; assay: Inhibition of […] ERK1/2 phosphorylation in human A375 cells xenografted po dosed athymic nude F344/N […] administered as single dose after 4 hrs by immunoblotting; assay type: functional, organism-based; settings: A-375
[2] = tested on: A-375; assay: Antitumor activity against human A375 cells xenografted in athymic nude F344/N jcl-rnu/rnu […] assessed as tumor regression at >32.3 mg/kg, po administered BID for 2 weeks measured on day 14 relative to control; assay type: functional, organism-based
[3] = Thermodynamic solubility of the compound in JP2 solution at pH 6.8 in presence of 20 mM bile acid; assay type: physicochemical; settings: JP2 solution with 20 mM bile acid, read-out: Therm_solubility
[4] = Metabolic stability in human liver microsomes assessed as compound remaining at 30 uM after 60 mins by HPLC analysis; assay type: ADME, Microsome; settings: read-out: Stability
[5] = target: Serine/threonine-protein kinase B-raf (Homo sapiens, UniProt P15056, V600E); assay: Inhibition of BRAF V600E mutant
[6] = tested on: Rattus norvegicus; assay: AUC (0 to 24 hrs) in nude rat assessed as 2-chloro-3-(1-cyanocyclopropyl)-N-[5-({2-[(cyclopropylcarbonyl) amino][1,3]thiazolo[5,4-b]pyridin-5-yl}oxy)-2-fluorophenyl] benzamide level at 12.9 mg/kg, po administered as single dose; assay type: ADME, organism-based, Plasma; design: time < 24 hr, dose 12.9 mg/kg, route oral; settings: in vivo
[7] = tested on: Rattus norvegicus; assay: AUC (0 to 24 hrs) in nude rat assessed as tert-butyl 5-(2-(cyclopropanecarboxamido)thiazolo[5,4-b]pyridin-5-yloxy)-2-fluorophenylcarbamate level at 64.6 mg/kg, po administered as single dose; assay type: ADME, organism-based, Plasma; design: time < 24 hr, dose 64.6 mg/kg, route oral; settings: in vivo
[8] = organism: Mus musculus; assay: (§1) Ratio of AUC (0 to 24 hrs) in mouse assessed as 2-chloro-3-(1-cyanocyclopropyl)-N-[5-({2-[(cyclopropylcarbonyl) amino][1,3]thiazolo[5,4-b]pyridin-5-yl}oxy)-2-fluorophenyl] benzamide level to AUC (0 to 24hrs) in mouse assessed as tert-butyl 5-(2-(cyclopropanecarboxamido)thiazolo[5,4-b]pyridin-5-yloxy)-2-fluorophenylcarbamate level; assay type: ADME, organism-based; settings: in vivo
[9] = tested on: Mus musculus; assay: Inhibition of VEGFR2-mediated ERK1/2 phosphorylation in human A375 cells xenografted athymic nude F344/N Jcl-rnu/rnu […] at 129 mg/kg, po administered as single dose after 4 hrs by immunoblotting relative to vehicle-treated control; values are per cent of control; settings: A-375, po
[10] = tested on: Mus musculus; assay: AUC (0 to 24 hrs) in mouse assessed as 2-chloro-3-(1-cyanocyclopropyl)-N-[5-({2-[(cyclopropylcarbonyl) amino][1,3]thiazolo[5,4-b]pyridin-5-yl}oxy)-2-fluorophenyl] benzamide level at 32.3 mg/kg, po administered as single dose; assay type: ADME, organism-based, Plasma; design: time < 24 hr, dose 32.3 mg/kg, route oral; settings: in vivo
[11] = tested on: Canis familiaris; assay: AUC (0 to 24 hrs) in dog assessed as tert-butyl 5-(2-(cyclopropanecarboxamido)thiazolo[5,4-b]pyridin-5-yloxy)-2-fluorophenylcarbamate level at 32.3 mg/kg, po administered as single dose; assay type: ADME, organism-based, Canis lupus familiaris, Plasma; design: time < 24 hr, dose 32.3 mg/kg, route oral; settings: in vivo
[12] = tested on: Rattus norvegicus; assay: AUC (0 to 24 hrs) in nude rat assessed as 2-chloro-3-(1-cyanocyclopropyl)-N-[5-({2-[(cyclopropylcarbonyl) amino][1,3]thiazolo[5,4-b]pyridin-5-yl}oxy)-2-fluorophenyl] benzamide level at 64.6 mg/kg, po administered as single dose; assay type: ADME, organism-based, Plasma; design: time < 24 hr, dose 64.6 mg/kg, route oral; settings: in vivo
[13] = tested on: Liver; assay: Prodrug conversion in dog liver microsomes assessed as 2-chloro-3-(1-cyanocyclopropyl)-N-[5-({2-[(cyclopropylcarbonyl) amino][1,3]thiazolo[5,4-b]pyridin-5-yl}oxy)-2-fluorophenyl] benzamide level at 10 umol/L after 2 hrs; assay type: ADME, Canis lupus familiaris, Microsome; settings: 10 µM
[14] = tested on: A-375; assay: Antitumor activity against human A375 cells xenografted in athymic nude F344/N jcl-rnu/rnu […] assessed as tumor regression at 129 mg/kg, po administered BID for 2 weeks measured on day 14 relative to control; assay type: functional
[15] = organism: Canis familiaris; assay: as §1, with “dog” for “mouse”; assay type: ADME, organism-based, Canis lupus familiaris; settings: in vivo
[16] = tested on: Mus musculus; assay: Inhibition of VEGFR2-mediated ERK1/2 phosphorylation in human A375 cells xenografted athymic nude F344/N Jcl-rnu/rnu […] at 12.9 mg/kg, po administered as single dose after 4 hrs by immunoblotting relative to vehicle-treated control; values are per cent of control; settings: A-375, po
[17] = tested on: Rhesus monkey; assay: as §1, with “monkey” for “mouse”; assay type: ADME, organism-based, Macaca mulatta; settings: in vivo
[18] = tested on: Rattus norvegicus; assay: AUC (0 to 24 hrs) in nude rat assessed as tert-butyl 5-(2-(cyclopropanecarboxamido)thiazolo[5,4-b]pyridin-5-yloxy)-2-fluorophenylcarbamate level at 12.9 mg/kg, po administered as single dose; assay type: ADME, organism-based, Plasma; design: time < 24 hr, dose 12.9 mg/kg, route oral; settings: in vivo
[19] = tested on: Canis familiaris; assay: AUC (0 to 24 hrs) in dog assessed as tert-butyl 2-chloro-3-(1-cyanocyclopropyl)benzoyl(5-(2-(cyclopropanecarboxamido)thiazolo[5,4-b]pyridin-5-yloxy)-2-fluorophenyl)carbamate level at 32.3 mg/kg, po administered as single dose; assay type: ADME, organism-based, Canis lupus familiaris, Plasma; design: time < 24 hr, dose 32.3 mg/kg, route oral; settings: in vivo
[20] = tested on: Liver; assay: (§2) Ratio of prodrug conversion assessed a 2-chloro-3-(1-cyanocyclopropyl)-N-[5-({2-[(cyclopropylcarbonyl) amino][1,3]thiazolo[5,4-b]pyridin-5-yl}oxy)-2-fluorophenyl] benzamide level to drug metabolism assessed as tert-butyl 5-(2-(cyclopropanecarboxamido)thiazolo[5,4-b]pyridin-5-yloxy)-2-fluorophenylcarbamate level in dog liver microsomes; assay type: ADME, Canis lupus familiaris, Microsome
[21] = tested on: Rhesus monkey; assay: AUC (0 to 24 hrs) in monkey assessed as tert-butyl 2-chloro-3-(1-cyanocyclopropyl)benzoyl(5-(2-(cyclopropanecarboxamido)thiazolo[5,4-b]pyridin-5-yloxy)-2-fluorophenyl)carbamate level at 32.3 mg/kg, po administered as single dose; assay type: ADME, organism-based, Macaca mulatta, Plasma; design: time < 24 hr, dose 32.3 mg/kg, route oral; settings: in vivo
[22] = tested on: Rattus norvegicus; assay: AUC (0 to 24 hrs) in nude rat assessed as tert-butyl 2-chloro-3-(1-cyanocyclopropyl)benzoyl(5-(2-(cyclopropanecarboxamido)thiazolo[5,4-b]pyridin-5-yloxy)-2-fluorophenyl)carbamate level at 64.6 mg/kg, po administered as single dose; assay type: ADME, organism-based, Plasma; design: time < 24 hr, dose 64.6 mg/kg, route oral; settings: in vivo
[23] = tested on: Canis familiaris; assay: AUC (0 to 24 hrs) in dog assessed as 2-chloro-3-(1-cyanocyclopropyl)-N-[5-({2-[(cyclopropylcarbonyl) amino][1,3]thiazolo[5,4-b]pyridin-5-yl}oxy)-2-fluorophenyl] benzamide level at 32.3 mg/kg, po administered as single dose; assay type: ADME, organism-based, Canis lupus familiaris, Plasma; design: time < 24 hr, dose 32.3 mg/kg, route oral; settings: in vivo
[24] = tested on: Mus musculus; assay: AUC (0 to 24 hrs) in mouse assessed as tert-butyl 5-(2-(cyclopropanecarboxamido)thiazolo[5,4-b]pyridin-5-yloxy)-2-fluorophenylcarbamate level at 32.3 mg/kg, po administered as single dose; assay type: ADME, organism-based, Plasma; design: time < 24 hr, dose 32.3 mg/kg, route oral; settings: in vivo
[25] = tested on: Rattus norvegicus; assay: (§3) Ratio of AUC (0 to 24 hrs) assessed as 2-chloro-3-(1-cyanocyclopropyl)-N-[5-({2-[(cyclopropylcarbonyl) amino][1,3]thiazolo[5,4-b]pyridin-5-yl}oxy)-2-fluorophenyl] benzamide level to AUC (0 to 24hrs) assessed as tert-butyl 5-(2-(cyclopropanecarboxamido)thiazolo[5,4-b]pyridin-5-yloxy)-2-fluorophenylcarbamate level in nude rat at 64.6 mg/kg, po; assay type: ADME, organism-based; design: dose 64.6 mg/kg, route oral; settings: in vivo
[26] = tested on: Rhesus monkey; assay: AUC (0 to 24 hrs) in monkey assessed as 2-chloro-3-(1-cyanocyclopropyl)-N-[5-({2-[(cyclopropylcarbonyl) amino][1,3]thiazolo[5,4-b]pyridin-5-yl}oxy)-2-fluorophenyl] benzamide level at 32.3 mg/kg, po administered as single dose; assay type: ADME, organism-based, Macaca mulatta, Plasma; design: time < 24 hr, dose 32.3 mg/kg, route oral; settings: in vivo
[27] = tested on: Mus musculus; assay: Inhibition of VEGFR2-mediated ERK1/2 phosphorylation in human A375 cells xenografted athymic nude F344/N Jcl-rnu/rnu […] at 32.3 mg/kg, po administered as single dose after 4 hrs by immunoblotting relative to vehicle-treated control; values are per cent of control; settings: A-375, po
[28] = as §2, with “monkey” for “dog”; assay type: ADME, Macaca mulatta, Microsome; settings: rhesus monkey
[29] = tested on: Rhesus monkey; assay: AUC (0 to 24 hrs) in monkey assessed as tert-butyl 5-(2-(cyclopropanecarboxamido)thiazolo[5,4-b]pyridin-5-yloxy)-2-fluorophenylcarbamate level at 32.3 mg/kg, po administered as single dose; assay type: ADME, organism-based, Macaca mulatta, Plasma; design: time < 24 hr, dose 32.3 mg/kg, route oral; settings: in vivo
[30] = tested on: Liver microsomes; assay: as §2, with “human” for “dog”; assay type: ADME, Microsome
[31] = tested on: Rattus norvegicus; assay: as §3, with “12.9” for “64.6”; assay type: ADME, organism-based; design: dose 12.9 mg/kg, route oral; settings: in vivo
[32] = tested on: Liver microsomes; assay: as §2, with “rat” for “dog”; assay type: ADME, Microsome
[33] = tested on: Rattus norvegicus; assay: AUC (0 to 24 hrs) in nude rat assessed as tert-butyl 2-chloro-3-(1-cyanocyclopropyl)benzoyl(5-(2-(cyclopropanecarboxamido)thiazolo[5,4-b]pyridin-5-yloxy)-2-fluorophenyl)carbamate level at 12.9 mg/kg, po administered as single dose; assay type: ADME, organism-based, Plasma; design: time < 24 hr, dose 12.9 mg/kg, route oral; settings: in vivo
[34] = tested on: Liver; assay: as §2, with “mouse” for “dog”; assay type: ADME, Microsome

Sequence of Serine/threonine-protein kinase B-raf (P15056 2-766 V600E limits assumed): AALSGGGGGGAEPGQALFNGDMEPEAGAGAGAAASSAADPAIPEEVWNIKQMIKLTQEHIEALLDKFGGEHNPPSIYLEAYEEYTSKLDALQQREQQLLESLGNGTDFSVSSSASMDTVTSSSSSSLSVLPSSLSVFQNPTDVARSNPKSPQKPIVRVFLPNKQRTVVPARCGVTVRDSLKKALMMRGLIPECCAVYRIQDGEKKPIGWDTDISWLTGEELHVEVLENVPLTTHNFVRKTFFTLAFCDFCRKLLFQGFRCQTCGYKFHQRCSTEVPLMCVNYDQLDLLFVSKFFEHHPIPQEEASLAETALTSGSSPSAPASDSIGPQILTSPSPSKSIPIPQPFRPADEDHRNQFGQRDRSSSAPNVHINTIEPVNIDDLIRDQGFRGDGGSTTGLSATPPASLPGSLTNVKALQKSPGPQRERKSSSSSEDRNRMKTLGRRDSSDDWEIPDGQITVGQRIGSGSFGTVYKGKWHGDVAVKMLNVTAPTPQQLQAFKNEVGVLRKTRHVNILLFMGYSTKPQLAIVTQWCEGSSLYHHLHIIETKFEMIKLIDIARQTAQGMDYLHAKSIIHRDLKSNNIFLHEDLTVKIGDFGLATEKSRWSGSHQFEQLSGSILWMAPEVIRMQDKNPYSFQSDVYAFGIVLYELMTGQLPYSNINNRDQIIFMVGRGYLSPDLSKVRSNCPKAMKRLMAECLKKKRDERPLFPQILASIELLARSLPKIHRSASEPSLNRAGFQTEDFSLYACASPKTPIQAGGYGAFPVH

Compound: CC(C)(C)OC(=O)N(C(=O)c1cccc(C2(C#N)CC2)c1Cl)c1cc(Oc2ccc3nc(NC(=O)C4CC4)sc3n2)ccc1F
inhibition [1]: Dose-dependent effect
Activity [2]: Dose-dependent effect

Compound: CC(C)(C)OC(=O)N(C(=O)c1cccc(C2(C#N)CC2)c1Cl)c1cc(Oc2ccc3nc(NC(=O)C4CC4)sc3n2)ccc1F.O
solubility thermodynamic [3]: 49 µg/mL

Compound: CC(C)(C)OC(=O)Nc1cc(Oc2ccc3nc(NC(=O)C4CC4)sc3n2)ccc1F
IC50 [5]: 2000 nM

Compound: CCOC(=O)N(C(=O)c1cccc(C2(C#N)CC2)c1Cl)c1cc(Oc2ccc3nc(NC(=O)C4CC4)sc3n2)ccc1F
solubility thermodynamic [3]: 0.79 µg/mL

Now from value to molecule, other results behind:

solubility thermodynamic [3]: 3.6 µg/mL
remaining at 1 h, 30 µM [4]: 110%
Compound: N#CC1(c2cccc(C(=O)Nc3cc(Oc4ccc5nc(NC(=O)C6CC6)sc5n4)ccc3F)c2Cl)CC1

AUC [6]: 1390 ng·h/mL
AUC [7]: 1800 ng·h/mL
Ratio AUC [8]: 9.8
AUC [10]: 4900 ng·h/mL
AUC [11]: 630 ng·h/mL
AUC [12]: 4280 ng·h/mL
Drug metabolism [13]: 2.3%
Ratio AUC [15]: 40
Ratio AUC [17]: 330
AUC [18]: 570 ng·h/mL
AUC [19]: 530 ng·h/mL
solubility thermodynamic [3]: 19 µg/mL
Ratio [20]: 3.3
AUC [21]: 530 ng·h/mL
AUC [22]: 80 ng·h/mL
AUC [23]: 25330 ng·h/mL
AUC [24]: 500 ng·h/mL
Ratio AUC [25]: 2.4
AUC [26]: 9900 ng·h/mL
Ratio [28]: 3
AUC [29]: 30 ng·h/mL
Ratio [30]: 152
Ratio AUC [31]: 2.4
Ratio [32]: 0.76
AUC [33]: 20 ng·h/mL
Ratio [34]: 19
Compound: CC(=O)O.CC(C)(C)OC(=O)N(C(=O)c1cccc(C2(C#N)CC2)c1Cl)c1cc(Oc2ccc3nc(NC(=O)C4CC4)sc3n2)ccc1F
level, % of control at 129 mg/kg [9]: 20.1%
T/C [14]: 6.4%
level, % of control at 12.9 mg/kg [16]: 52.7%
level, % of control at 32.3 mg/kg [27]: 34.1%

solubility thermodynamic [3]: 3.2 µg/mL
Compound: N#CC1(c2cccc(C(=O)N(C(=O)C3CC3)c3cc(Oc4ccc5nc(NC(=O)C6CC6)sc5n4)ccc3F)c2Cl)CC1

remaining at 1 h, 30 µM [4]: 78.5%
Compound: CC(=O)Nc1nc2ccc(Oc3ccc(F)c(NC(=O)c4cccc(C5(C#N)CC5)c4Cl)c3)nc2s1

solubility thermodynamic [3]: 4.2 µg/mL
Compound: CC(C)(C)OC(=O)N(C(=O)c1cccc(C2(C#N)CC2)c1Cl)c1cc(Oc2ccc3nc(NC(=O)C4CC4)sc3n2)ccc1F.CCO
